Assay results reported in patent publication US6054556A, “Melanocortin receptor antagonists and agonists” (The Arizona Board of Regents on Behalf of the University of …, priority 1997, dated 2000).
“Also recorded” adds a separate entry of the source. Where a SMILES comes first, the peptide text is derived from it. Bridges are numbered along the chain shown (N, C = ends). [ ]: non-standard residue; d: D form. 2Nal = N[C@@H](Cc1ccc2ccccc2c1)C(=O)O; d2Nal = N[C@H](Cc1ccc2ccccc2c1)C(=O)O; Nle = CCCC[C@H](N)C(=O)O

What was measured:
Format in all cases: cell-based
[1] = system: frog (Rana pipiens) skin; assay: Frog skin bioassay (skin darkening, photoreflectance); details: for Frog Skin: agonist/antagonist activity: melanin dispersion vs α-MSH
Experimental: Bioassays were performed on frog (Rana pipiens) skin according to published protocols [see J. Med. Chem. 30:2126 (1987) and Gen. Comp. Endocrinol. 55:104 (1984)]. Briefly, in these assays the darkening of skin due to dispersion of melanin granules within the melanocytes in response to the melanotropin peptides according to the present invention is measured by photoreflectance methods. The agonist potency of each peptide was determined from the dose response curves comparing the skin darkening with that produced by the native hormone, α-MSH. Prolongation of the biological response was measured by continued monitoring of the melanosome dispersion for up to 3 hours following removal of the peptide in the bathing solution through washing of the skins. The antagonistic activity profile was measured by pre-incubating the skins for 1 hour in various concentrations of the antagonist. After pre-incubation, a known concentration of α-MSH was added and its melanotropic activity determined. Dose-response curves generated for α-MSH in this manner were used to determine the pA2 values (representing the -log10 of the average molar concentration of the antagonist that will reduce the response of α-MSH (agonist) from 2X units to X units) [see Br. J. Pharmacol. 2:189 (1947)].

[2] = target: T1, hMC3-R (Homo sapiens, UniProt P41968); assay: cAMP-dependent pCRE/β-galactosidase reporter assay in Clonal 293 cells expressing human MC3-R; details: for hMC3-R: agonist/antagonist activity: cAMP/β-galactosidase
T1 construct: expressed in transfected cells
T1 sequence (P41968 whole entry): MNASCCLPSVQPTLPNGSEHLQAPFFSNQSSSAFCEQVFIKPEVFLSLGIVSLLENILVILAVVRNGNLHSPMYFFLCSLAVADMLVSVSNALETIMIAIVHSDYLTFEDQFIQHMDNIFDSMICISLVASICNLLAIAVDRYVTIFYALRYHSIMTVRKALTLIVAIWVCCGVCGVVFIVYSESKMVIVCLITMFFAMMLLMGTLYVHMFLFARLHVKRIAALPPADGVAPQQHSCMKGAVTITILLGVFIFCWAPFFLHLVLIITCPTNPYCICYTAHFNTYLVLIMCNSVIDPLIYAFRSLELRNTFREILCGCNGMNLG
Experimental: (§1) The peptides according to the present invention were assayed for agonist and antagonist activity using cloned hMC1, mMC1-R, hMC3-R, hMC4-R and mMC5-R transfected into the stable cell line Clonal 293. Transduction was measured by its affect on cAMP production using the following method.
(§2) Clonal 293 cell lines expressing the human MSH receptor, human MC3-R, human MC4-R, and mouse MC5-R were transfected with a pCRE/β-galactosidase construct using a CaPO4 method [see Mol. Cell. Biol. 7:2745 (1987)]. 4 μg of pCRE/β-galactosidase DNA was used for transfection of a 10 cm dish of cells. After 15 to 24 hours post-transfection, cells were split into 96-well plates with 20,000 to 30,000 cells per well, and incubated at 37° C. in a 5% CO2 incubator until 48 hours post-transfection.Cells were then stimulated with different peptides diluted in stimulation medium (Dulbecco's modified Eagle's medium containing 0.1 mg/ml bovine serum albumin and 0.1 mM isobutylmethylxanthine) for 6 hours. Agonist activity was measured by stimulating cells with various concentrations of peptide, and antagonist activity was measured by stimulating MC3 and MC4 receptor cell lines with […]. After stimulation, cells were lysed in 50 μl lysis buffer (250 mM Tris-HCl, pH 8.0, 0.1% Triton X-100), frozen and thawed, and then assayed for b-galactosidase activity.

[3] = target: T2, mMC5-R (Mus musculus, UniProt P41149); assay: cAMP-dependent pCRE/β-galactosidase reporter assay in Clonal 293 cells expressing mouse MC5-R; details: for mMC5-R: agonist/antagonist activity: cAMP/β-galactosidase
T2 construct: expressed in transfected cells
T2 sequence (P41149 whole entry): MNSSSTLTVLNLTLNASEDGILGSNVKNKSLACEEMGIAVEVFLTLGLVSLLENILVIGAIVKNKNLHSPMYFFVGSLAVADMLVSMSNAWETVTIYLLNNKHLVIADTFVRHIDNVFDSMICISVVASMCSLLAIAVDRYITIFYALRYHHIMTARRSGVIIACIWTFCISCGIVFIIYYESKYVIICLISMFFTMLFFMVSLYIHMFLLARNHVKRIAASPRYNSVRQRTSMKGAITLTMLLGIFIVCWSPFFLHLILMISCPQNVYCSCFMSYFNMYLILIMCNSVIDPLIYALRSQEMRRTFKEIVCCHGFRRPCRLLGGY
Experimental: Transduction was measured by its affect on cAMP production using the following method.
as §2, with “4” for “Clonal 293 cell lines expressing the human MSH receptor, human MC3-R, human MC4-R, and mouse MC5-R were transfected with a pCRE/β-galactosidase construct using a CaPO4 method [see Mol. Cell. Biol. 7:2745 (1987)]. 4”

[4] = target: T3, hMC4-R (Homo sapiens, UniProt P32245); assay: cAMP-dependent pCRE/β-galactosidase reporter assay in Clonal 293 cells expressing human MC4-R; details: for hMC4-R: agonist/antagonist activity: cAMP/β-galactosidase
T3 construct: expressed in transfected cells
T3 sequence (P32245 whole entry): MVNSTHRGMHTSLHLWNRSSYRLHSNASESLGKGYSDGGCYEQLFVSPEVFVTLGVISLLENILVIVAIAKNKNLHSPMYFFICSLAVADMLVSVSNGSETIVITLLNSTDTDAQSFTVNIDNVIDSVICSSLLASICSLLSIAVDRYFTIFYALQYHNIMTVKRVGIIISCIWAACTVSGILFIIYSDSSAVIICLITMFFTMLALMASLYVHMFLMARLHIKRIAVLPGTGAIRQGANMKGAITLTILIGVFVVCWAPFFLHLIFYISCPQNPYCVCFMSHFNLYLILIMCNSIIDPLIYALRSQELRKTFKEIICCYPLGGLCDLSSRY
Experimental: as §1, §2

hMC3-R: potency range [2] | hMC3-R: agonist/antagonist activity [2] | mMC5-R: potency range [3] | mMC5-R: agonist/antagonist activity [3] | hMC4-R: potency range [4] | hMC4-R: agonist/antagonist activity [4] | Compound | Frog Skin: reversibility of antagonism [1] | Frog Skin: agonist/antagonist activity [1]
– | – | – | – | – | – | CCCC[C@H](NC(C)=O)C(=O)N[C@H]1CC(=O)NCCCC[C@@H](C(N)=O)NC(=O)[C@H](Cc2ccc3ccccc3c2)NC(=O)[C@H](CCCNC(=N)N)NC(=O)[C@@H](Cc2ccc3ccccc3c2)NC(=O)[C@H](Cc2c[nH]c3ccccc23)NC1=O [Compound 1, Ac-Nle-c[Asp-Trp-D-Nal(2')-Arg-Nal(2')-Lys]-NH2] (Ac-[Nle]DW[d2Nal]R[2Nal]K-NH2; lactam 2-7) | Irreversible | Antagonist
– | – | – | – | – | – | CCCC[C@H](NC(C)=O)C(=O)N[C@H]1CC(=O)NCCCC[C@@H](C(N)=O)NC(=O)[C@H](Cc2ccc3ccccc3c2)NC(=O)[C@H](CCCNC(=N)N)NC(=O)[C@@H](Cc2ccccc2)NC(=O)[C@H](Cc2c[nH]c3ccccc23)NC1=O [Compound 10, Ac-Nle-c[Asp-Trp-D-Phe-Arg-Nal(2')-Lys]-NH2] (Ac-[Nle]DW[dF]R[2Nal]K-NH2; lactam 2-7) | – | potent agonist; also recorded: Full Agonist
– | – | – | – | – | – | CCCC[C@H](NC(C)=O)C(=O)N[C@H]1CC(=O)NCCCC[C@@H](C(N)=O)NC(=O)[C@H](Cc2ccc3ccccc3c2)NC(=O)[C@H](CCCNC(=N)N)NC(=O)[C@@H](Cc2ccc3ccccc3c2)NC(=O)[C@H](Cc2c[nH]cn2)NC1=O [Compound 11, Ac-Nle-c[Asp-His-D-Nal(2')-Arg-Nal(2')-Lys]-NH2] | – | Antagonist -- Partial
– | – | – | – | – | – | CCCC[C@H](NC(C)=O)C(=O)N[C@H]1CC(=O)NCCCC[C@@H](C(N)=O)NC(=O)[C@H](Cc2c[nH]c3ccccc23)NC(=O)[C@H](CCCC)NC(=O)[C@@H](Cc2ccc3ccccc3c2)NC(=O)[C@H](Cc2c[nH]cn2)NC1=O [Compound 13, Ac-Nle-c[Asp-His-D-Nal(2')-Nle-Trp-Lys]-NH2] | – | Agonist
– | – | – | – | – | – | CCCC[C@H](NC(C)=O)C(=O)N[C@H]1CC(=O)NCCCC[C@@H](C(N)=O)NC(=O)[C@H](Cc2c[nH]c3ccccc23)NC(=O)[C@H](CCCC)NC(=O)[C@@H](Cc2ccc3ccccc3c2)NC(=O)[C@H](Cc2c[nH]c3ccccc23)NC1=O [Compound 14, Ac-Nle-c[Asp-Trp-D-Nal(2')-Nle-Trp-Lys]-NH2] (Ac-[Nle]DW[d2Nal][Nle]WK-NH2; lactam 2-7) | – | Antagonist
– | – | – | – | – | – | CCCC[C@H](NC(C)=O)C(=O)N[C@H]1CC(=O)NCCCC[C@@H](C(N)=O)NC(=O)[C@H](Cc2c[nH]c3ccccc23)NC(=O)[C@H](Cc2ccc3ccccc3c2)NC(=O)[C@@H](Cc2ccccc2)NC(=O)[C@H](Cc2c[nH]cn2)NC1=O [Compound 15, Ac-Nle-c[Asp-His-D-Phe-Nal(2')-Trp-Lys]-NH2] | – | Agonism
– | – | – | – | – | – | CCCC[C@H](NC(C)=O)C(=O)N[C@H]1CC(=O)NCCCC[C@@H](C(N)=O)NC(=O)[C@@H](Cc2ccc3ccccc3c2)NC(=O)[C@H](CCCNC(=N)N)NC(=O)[C@@H](Cc2ccc3ccccc3c2)NC(=O)[C@H](Cc2c[nH]cn2)NC1=O [Compound 16, Ac-Nle-c[Asp-His-D-Nal(2')-Arg-D-Nal(2')-Lys]-NH2] | – | Agonism
nM range | Antagonist | pM range | Antagonist | nM range | Antagonist | Ac-Nle-c[Asp-His(1-Me)-D-Nal(2')-Arg-Nal(2')-Lys]-NH2 [Compound 5] | Irreversible | Antagonist
nM range | Antagonist | pM range | Antagonist | nM range | Antagonist | Ac-Nle-c[Asp-His(1-Me)-D-Nal(2')-Arg-Trp-Lys]-NH2 [Compound 2] | Irreversible | Antagonist
nM range | Antagonist | pM range | Antagonist | nM range | Antagonist | Ac-Nle-c[Asp-His(3-Me)-D-Nal(2')-Arg-Nal(2')-Lys]-NH2 [Compound 6] | Irreversible | Antagonist
nM range | Antagonist | pM range | Antagonist | nM range | Antagonist | Ac-Nle-c[Asp-His(3-Me)-D-Nal(2')-Arg-Trp-Lys]-NH2 [Compound 3] | Irreversible | Antagonist
